Results on 22 compounds are retold here after patent US10131675B2 (Genentech, Inc., priority 2015, dated 2018).

The structures appear in SMILES notation.

The target in the assay is DLK (Homo sapiens (Human), UniProt Q12852). The experiment in a line: DLK TR-FRET Inhibition Assay. Particulars: N-terminally GST-tagged DLK (catalytic domain amino acid 1-520), MKK4 K131M substrate, 30 μM ATP; read-out: DLK HTRF Ki. Format: biochemical. The procedure, abridged: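 GST-tagged DLK catalytic domain (aa 1-520, 5 nM) phosphorylates 40 nM HIS-tagged MKK4 K131M with 30 μM ATP, pH 7.5, 60 min at ambient temperature; compounds 1:3 serial from 20 uM. Phospho-MKK4 detected by TR-FRET (Eu-cryptate anti-phospho-MKK4/D2 anti-HIS) after 3 h.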
Sequence of DLK (Q12852 1-520): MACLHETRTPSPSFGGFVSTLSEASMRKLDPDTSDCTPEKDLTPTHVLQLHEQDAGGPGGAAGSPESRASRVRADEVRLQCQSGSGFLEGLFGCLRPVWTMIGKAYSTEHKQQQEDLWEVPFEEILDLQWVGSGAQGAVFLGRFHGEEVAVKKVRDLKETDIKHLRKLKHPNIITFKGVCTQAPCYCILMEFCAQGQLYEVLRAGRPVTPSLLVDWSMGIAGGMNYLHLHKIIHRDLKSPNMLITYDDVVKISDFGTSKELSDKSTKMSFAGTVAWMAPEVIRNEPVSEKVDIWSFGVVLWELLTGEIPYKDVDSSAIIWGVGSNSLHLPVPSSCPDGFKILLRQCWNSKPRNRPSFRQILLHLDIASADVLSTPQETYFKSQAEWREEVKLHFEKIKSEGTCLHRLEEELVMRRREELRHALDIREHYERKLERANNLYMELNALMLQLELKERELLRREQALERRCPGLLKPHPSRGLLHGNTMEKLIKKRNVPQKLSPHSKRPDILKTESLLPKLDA
With `CC1(C)OCCn2c1nc1c(C3CC3)nc(-c3cnc(N)c4nc[nH]c34)nc12` [Example 127, 7-(4-cyclopropyl-6,6-dimethyl-8,9-dihydro-6H-[1,4]oxazino[4,3-e]purin-2-yl)-1H-imidazo[4,5-c]pyridin-4-amine], the Ki was found to be 150 nM.
The figure for `CN(C)c1nc(-c2cnc3[nH]cc(C#N)c3c2)nc2c1nc1n2CCCOC1` [Example 128, 5-(4-(dimethylamino)-6,8,9,10-tetrahydro-[1,4]oxazepino[4,3-e]purin-2-yl)-1H-pyrrolo[2,3-b]pyridine-3-carbonitrile] is 17.9 nM; for `CN(C)c1nc(-c2cnc3[nH]cc(C(F)(F)F)c3c2)nc2c1nc1n2CCCOC1` [Example 129, N,N-dimethyl-2-(3-(trifluoromethyl)-1H-pyrrolo[2,3-b]pyridin-5-yl)-6,8,9,10-tetrahydro-[1,4]oxazepino[4,3-e]purin-4-amine] it is 1.64 nM.
Turning to `COC1CN(c2nc(-c3cnc4[nH]cc(C(F)(F)F)c4c3)nc3c2nc2n3CCOCC2)C1` [Example 131, 4-(3-methoxyazetidin-1-yl)-2-(3-(trifluoromethyl)-1H-pyrrolo[2,3-b]pyridin-5-yl)-6,7,9,10-tetrahydro-[1,4]oxazepino[4,5-e]purine], the Ki stood at 60.7 nM.
Take `Nc1ncc(-c2nc(N3CC4CC3C4)c3nc4n(c3n2)CCCOC4)cn1` [Example 132, 5-(4-(2-azabicyclo[2.1.1]hexan-2-yl)-6,8,9,10-tetrahydro-[1,4]oxazepino[4,3-e]purin-2-yl)pyrimidin-2-amine]: the Ki stood at 281 nM.
The same measure for `Nc1ncc(-c2nc(N3CC4CC3C4)c3nc4n(c3n2)CCOCC4)cn1` [Example 133, 5-(4-(2-azabicyclo[2.1.1]hexan-2-yl)-6,7,9,10-tetrahydro-[1,4]oxazepino[4,5-e]purin-2-yl)pyrimidin-2-amine]: 447 nM; for `CC1(C)OCCCn2c1nc1c(N3CCCC3)nc(-c3cnc(N)nc3)nc12` [Example 134, 5-(6,6-dimethyl-4-(pyrrolidin-1-yl)-6,8,9,10-tetrahydro-[1,4]oxazepino[4,3-e]purin-2-yl)pyrimidin-2-amine]: 210 nM; for `Nc1ncc(-c2nc(N3CC4CC3C4)c3nc4n(c3n2)CCCOC4)cc1OC(F)F` [Example 135, 5-(4-(2-azabicyclo[2.1.1]hexan-2-yl)-6,8,9,10-tetrahydro-[1,4]oxazepino[4,3-e]purin-2-yl)-3-(difluoromethoxy)pyridin-2-amine]: 30.8 nM.
The figure for `COC1CN(c2nc(-c3cnc(N)c(OC(F)F)c3)nc3c2nc2n3CCCOC2)C1` [Example 136, 3-(difluoromethoxy)-5-(4-(3-methoxyazetidin-1-yl)-6,8,9,10-tetrahydro-[1,4]oxazepino[4,3-e]purin-2-yl)pyridin-2-amine] is 687 nM.
In the case of `CC1(C)OCCCn2c1nc1c(N3CC4CC3C4)nc(-c3cnc(N)nc3)nc12` [Example 137, 5-(4-(2-azabicyclo[2.1.1]hexan-2-yl)-6,6-dimethyl-6,8,9,10-tetrahydro-[1,4]oxazepino[4,3-e]purin-2-yl)pyrimidin-2-amine], the Ki came to 177 nM.
With `CC1(C)OCCn2c1nc1c(N3CC4CC3C4)nc(-c3cnc(N)c(C#N)c3)cc12` [Example 144], the inhibition constant Ki is 2.23 nM.
Regarding `COC1CN(c2nc(-c3cnc4[nH]cc(C(F)(F)F)c4c3)nc3c2nc2n3CCCOC2)C1` [Example 145], the Ki worked out at 6.49 nM.
The figure for `CC1(C)OCCn2c1nc1c(N3CC4CC3C4)nc(-c3cnc4[nH]cnc4c3)nc12` [Example 146] is 32.2 nM; for `CC1(C)OCCn2c1nc1c(N3CC4CCC3C4)nc(-c3cnc4[nH]cnc4c3)nc12` (stereo not shown) [Example 147] it is 39.5 nM; for `CC1(C)OCCn2c1nc1c(C3CC3)nc(-c3cnc(N)c(OC(F)F)c3)cc12` [Example 148] it is 56.9 nM.
The figure for `COC1CN(c2nc(-c3cnc(N)c(OC(F)F)c3)nc3c2nc2n3CCOC2(C)C)C1` [Example 149] is 73.7 nM; for `CC1(C)OCCn2c1nc1c(N3CC4CC3C4)nc(-c3cnc(N)c(C(F)(F)F)c3)nc12` [Example 150] it is 112 nM; for `C[C@H]1Cn2c(nc3c(N4CC5CC4C5)nc(-c4cnc(N)nc4)nc32)[C@@H](C)O1` [Example 151] it is 120 nM.
The figure for `CC1(C)OCCn2c1nc1c(N3CC(C#N)C3)nc(-c3cnc4[nH]cc(F)c4c3)nc12` [Example 152] is 183 nM.
For the compound `C[C@@H]1O[C@@H](C)Cn2c1nc1c(N3CC4CC3C4)nc(-c3cnc(N)nc3)nc12` [Example 153], the inhibitory constant (Ki) stood at 261 nM.
The same measure for `CC(Oc1nc(-c2cnc(N)nc2)nc2c1nc1n2CCOC1(C)C)C1CC1` (stereo not shown) [Example 155]: 1200 nM; for `CC1(C)OCCn2c1nc1c(N3CCC4(CCCO4)C3)nc(-c3cnc(N)nc3)nc12` (stereo not shown) [Example 156]: 1300 nM.
